Test results as given in PubChem BioAssay AID463199 (Broad Institute, 2010).
Calls of active or inactive are those of the source.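 Rule for the calls: active = AC50, the dose giving half-maximal effect, exceeds a fixed cutoff for a compound that rescues yeast growth under heat; inactive = the rest, inconclusive results apart.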

Tested on: S. cerevisiae Burl-1 ts mutant growth, BacTiter-Glo, 38.5C 24 h
Test: growth induction of Burl-1 ts yeast mutant, dose response, counter-screen for SUMOylation pathway inhibitor project, whole organism, S. cerevisiae, luminescence (AID 463199)

SMILES	AC50
CC(C)n1c(CN(C)c2ccccc2)nc2ccccc21	> 42 µM (inactive)
CC1CN(S(=O)(=O)c2cccc(C(=O)N=c3sccn3C)c2)CC(C)O1 (stereo not drawn)	> 42 µM (inactive)
c1ccc(-c2cc3ccccc3cn2)cc1	> 42 µM (inactive)
Cc1nn(C(C)(C)C)c(OC(=O)c2ccc3c(c2)OCO3)c1S(=O)(=O)c1ccccc1	> 42 µM (inactive)
COc1ccc(/C=N/NC(=O)c2nnn(-c3nonc3N)c2-c2cccs2)cc1OC	> 42 µM (inactive)
COCC(C)n1c(-c2ccc3c(c2)NC(=O)CO3)csc1=Nc1ccc(OC(F)F)cc1 (stereo not drawn)	> 42 µM (inactive)
CCOP(=O)(OCC)C(NC(=O)c1cccc(C)c1)C(Cl)(Cl)Cl (stereo not drawn)	> 42 µM (inactive)
CCOc1ccc(C(C(=O)NC2CCCC2)N(C(=O)c2snc(C(N)=O)c2N)C2CCCC2)cc1 (stereo not drawn)	> 42 µM (inactive)
O=C(CCc1ccccc1)N1CCN(c2ccccc2F)CC1	> 42 µM (inactive)
CCCCn1c(N)c(N(CCOC)C(=O)c2ccc(Cl)c(S(=O)(=O)N3CCCCC3)c2)c(=O)[nH]c1=O	> 42 µM (inactive)
CC(=O)C(C(c1ccccc1)c1c[nH]c2ccccc12)[N+](=O)[O-] (stereo not drawn)	> 42 µM (inactive)
O=C1C2CC=C(Cl)CC2C(=O)N1c1ncn[nH]1 (stereo not drawn)	> 42 µM (inactive)
c1ccc2c(c1)OCCOCCOc1ccccc1OCCOCCO2	> 42 µM (inactive)
CC(C(=O)N1CCN(C(=O)c2ccco2)CC1)n1sc2ccccc2c1=O (stereo not drawn)	> 42 µM (inactive)
CCOC(=O)c1cc2sc(C)cc2n1CC(=O)Nc1ccc2c(c1)OCCO2	> 42 µM (inactive)
COc1ccc(CCC(=O)Nc2ccc3c(c2)OCO3)cc1	> 42 µM (inactive)
CN(C)CCNC(=O)c1onc(CSc2ccc(F)c(F)c2)c1C(=O)NCCN(C)C	> 42 µM (inactive)
CC(C)(C)C(=O)NC1CCN(CC(=O)Nc2ccc3c(c2)OCO3)CC1	> 42 µM (inactive)
COCCn1c(=NC(=O)c2ccc(S(=O)(=O)N3CCOCC3)cc2)sc2cc(S(N)(=O)=O)ccc21	> 42 µM (inactive)
O=C(NC1CCCCCC1)C1CCN(S(=O)(=O)c2cccc3cccnc23)CC1	> 42 µM (inactive)
CCOc1ccc(NC(=O)Nc2ccc3nsnc3c2)cc1	> 42 µM (inactive)
Cc1ccc(N(C(=O)Cn2nnc3ccccc32)C(C(=O)NC2CCCCC2)c2cn(C)nc2C)cc1 (stereo not drawn)	> 21 µM (inactive)
COCCn1c(=O)[nH]c(=O)c2cc(C(=O)c3cc(Cl)ccc3O)cnc21	> 42 µM (inactive)
COc1ccc(CN(CC(=O)NCC2CCCO2)C(=O)CCC(=O)Nc2cc(C)on2)cc1 (stereo not drawn)	> 42 µM (inactive)
Cc1nnc(SCC(=O)NC(C)(C)C)n1NCc1ccc(Cl)cc1	> 42 µM (inactive)

SMILES	AC50
Cc1cc(C)cc(OCC(=O)NC2CCCc3ccccc32)c1 (stereo not drawn)	> 42 µM (inactive)
O=C1NC2(CCCCO2)CO1 (stereo not drawn)	> 42 µM (inactive)
COc1cc(/C=C(\NC(=O)c2ccccc2)C(=O)Nc2nccs2)ccc1OC(C)=O	> 42 µM (inactive)
CC1Cc2ccccc2N1C(=O)CNc1cccc(S(=O)(=O)N2CCCC2)c1 (stereo not drawn)	> 42 µM (inactive)
CC(=O)C1(c2ccccc2)CCNCC1	> 21 µM (inactive)
COC(=O)Nc1ccc(S(=O)(=O)N2CCCC(C(=O)NC3CCS(=O)(=O)C3)C2)cc1 (stereo not drawn)	> 42 µM (inactive)
CN(C(=O)COC(=O)c1cc2ccccc2cc1O)c1c(N)n(Cc2ccccc2)c(=O)[nH]c1=O	> 42 µM (inactive)
COc1ccc(-c2cc(C#N)nc(N3CCN(c4ccccc4)CC3)n2)cc1	> 42 µM (inactive)
CC(NC(=O)C12CC3CC(CC(O)(C3)C1)C2)c1ccccc1 (stereo not drawn)	> 42 µM (inactive)
Cc1ccc(O)c(CNc2nc3ccccc3n2C)c1	> 42 µM (inactive)
CCc1ccc2[nH]c(=O)c(C(c3nnnn3Cc3ccccc3)N3CCOCC3)cc2c1 (stereo not drawn)	> 42 µM (inactive)
Cc1ccc2c(c1)C(=O)N1[C@H]3c4ccccc4OC[C@@H]3[C@H](c3ccccc3)[C@]1(C)C(=O)N2	> 42 µM (inactive)
CCN(CC)c1ccc(C=C2C(=O)OC(c3ccccc3)OC2=O)cc1 (stereo not drawn)	> 42 µM (inactive)
Cc1c(C)c2c(c(C)c1O)CCC(C)(C(=O)O)O2 (stereo not drawn)	> 42 µM (inactive)
COc1ccc(/C=C2/SC(=O)N(NS(=O)(=O)c3ccccc3)C2=S)cc1OC	> 42 µM (inactive)
CC(NC(=O)c1cnc2n(c1=O)CCS2)c1ccccc1 (stereo not drawn)	> 42 µM (inactive)
Cc1[nH]oc(=O)c1N=Nc1ccccc1	> 42 µM (inactive)
CCn1c(SCC(=O)OC)nnc1-c1ccncc1	> 42 µM (inactive)
CCNC(=O)C1CC(=O)N(Cc2ccc3c(c2)OCO3)C(=Nc2ccc(F)cc2)S1 (stereo not drawn)	> 42 µM (inactive)
Cc1ccc(S(=O)(=O)NN2C(=O)c3ccccc3NC2c2ccccc2F)cc1 (stereo not drawn)	> 42 µM (inactive)
CCOC1(OCC)C(c2ccc(Cl)cc2)C(C#N)(C#N)C1(OCC)OCC (stereo not drawn)	> 42 µM (inactive)
Cc1cc(S(=O)(=O)N2CCCC(N3CCOCC3)C2)c(C)cc1Cl (stereo not drawn)	> 42 µM (inactive)
COc1cc2c(cc1OC)C(c1ccc(SC)cc1)CC(=O)N2 (stereo not drawn)	> 42 µM (inactive)
Cc1onc(-c2ccccc2Cl)c1C(=O)N1CCc2ccccc2C1	> 42 µM (inactive)
OCCN1CN=C(Nc2nc3ccccc3o2)NC1	> 42 µM (inactive)

SMILES	AC50
Cc1ccc(C(=O)NCCCNC(=O)c2ccc(C)nc2)cc1	> 42 µM (inactive)
Cc1ccc(N(C(C)C(=O)O)S(=O)(=O)c2c(C)n[nH]c2C)cc1 (stereo not drawn)	> 42 µM (inactive)
COc1ccc(/C=N\NC(=O)c2cc(OCC(F)(F)F)ccc2OCC(F)(F)F)cc1	> 42 µM (inactive)
N#C/C(=C/c1ccc(N2CCCCC2)o1)C(=O)Nc1ccc(Cl)cc1	> 42 µM (inactive)
Cc1ccc(CC2CC(=O)N(c3ccc4c(c3)OCCO4)C2=O)cc1 (stereo not drawn)	> 42 µM (inactive)
CC(=O)N(C(C)=O)c1c(C#N)c(C)n(-c2ccccc2)c1C(=O)c1ccccc1	> 42 µM (inactive)
CCOc1ccc(N(CC(=O)NC2CCC(C)CC2)S(=O)(=O)c2c(C)noc2C)cc1 (stereo not drawn)	> 42 µM (inactive)
c1ccc2[nH]c(CSc3nccs3)nc2c1	> 42 µM (inactive)
COC(=O)c1ccc(CSc2nnnn2-c2ccccc2)o1	> 42 µM (inactive)
CCc1nccn1S(=O)(=O)c1cc(OC)ccc1OC	> 42 µM (inactive)
CCOc1ccc(CCNC(=O)COC(=O)COc2ccc(C(C)=O)cc2)cc1OCC	> 42 µM (inactive)
CC1CCCC(C)N1/N=C/c1cc(Br)cc(Br)c1O (stereo not drawn)	> 42 µM (inactive)
Cc1cc(NC(=O)c2ccc(N3C(=O)CCC3=O)cc2)no1	> 42 µM (inactive)
CC1CCCCN1C(=O)C(Cc1ccccc1)N1C(=O)C2CCCCC2C1=O (stereo not drawn)	> 42 µM (inactive)
COc1ccc(-c2cn(-c3ccc(C)cc3)c(=O)n2CC(=O)Nc2ccc(OC)c(OC)c2)cc1	> 42 µM (inactive)
CCOP(=O)(Cc1cc(C(=O)CC)c(C)o1)OCC	> 42 µM (inactive)
CN(C(=S)NC1=CCS(=O)(=O)C1)C1CCCCC1	> 42 µM (inactive)
COC(=O)c1ccccc1NC(NC(=O)c1ccco1)C(=O)c1ccccc1 (stereo not drawn)	> 42 µM (inactive)
CCOC(=O)N1CCN(c2nnnn2-c2ccccc2)CC1	> 42 µM (inactive)
CCc1nnc(NC(=O)c2cccc(S(=O)(=O)N3CCN(c4ccccc4)CC3)c2)s1	> 42 µM (inactive)
Cc1ccc(N/C=C(\C#N)c2ccc(OCCCF)cc2)cc1	> 42 µM (inactive)
CN(C(=O)C1CCCO1)c1nnc(-c2cnccn2)s1 (stereo not drawn)	> 42 µM (inactive)
CCn1c(-c2ccccc2)c(C(=O)CC#N)c2ccccc21	> 42 µM (inactive)
O=S(=O)(Nc1cccc2cn[nH]c12)c1ccc(F)cc1	> 42 µM (inactive)
CCOc1cc(-c2ccccc2)nc(N)n1	> 42 µM (inactive)

SMILES	AC50
COc1cc(CN2CCCC(CO)(Cc3cccc(Cl)c3)C2)cc2c1OCO2 (stereo not drawn)	> 42 µM (inactive)
COC(=O)C1(Cc2cc(-c3ccccc3)no2)CCN(C(=O)OC(C)(C)C)CC1	> 42 µM (inactive)
O=C(NCc1ccccn1)C1CC(c2ccc(Cl)c(Cl)c2)=NO1 (stereo not drawn)	> 42 µM (inactive)
CC(C)(C)C(=O)NC1(C(F)(F)F)NC(=O)N(c2ccccc2F)C1=O (stereo not drawn)	> 42 µM (inactive)
CN(C)CCCN(Cc1ccccc1)C(=S)Nc1ccc(F)c(Cl)c1	> 42 µM (inactive)
CN=C1SC(CC(=O)Nc2sc3c(c2C#N)CCCC3)C(=O)N1C (stereo not drawn)	> 42 µM (inactive)
CCOc1ncccc1-c1nc(-c2cccs2)no1	> 42 µM (inactive)
CC1=C(C(=O)OCc2ccccc2)C(c2cccc(F)c2)NC(=O)N1 (stereo not drawn)	> 42 µM (inactive)
CCOC(=O)c1sc(NC(=O)CSc2n[nH]c(-c3ccc(Cl)cc3Cl)n2)c(C#N)c1C	> 42 µM (inactive)
c1ccc2c(c1)[nH]c1c(N3CCN(C4CCCCC4)CC3)ncnc12	39.8 µM
CCN(CC)CCCNC(=O)C1c2ccccc2C(=O)N(CCOC)C1c1ccc(F)cc1 (stereo not drawn)	> 21 µM (inactive)
NN1C(=O)NC(c2ccccc2)(c2ccccc2)C1=O	> 42 µM (inactive)
O=C(O)c1ccc(Cl)c(NCc2cccs2)c1	> 42 µM (inactive)
COC(=O)C1(Cc2ccc(O)cc2)OC(=O)C(O)=C1c1ccc(O)cc1 (stereo not drawn)	> 42 µM (inactive)
COc1cccc(NC(=S)NC(=O)c2cncc(Br)c2)c1	> 42 µM (inactive)
COCCN1C(=O)/C(=C/c2cc3c(cc2Br)OCO3)NC1=S	> 42 µM (inactive)
Cc1ccc(C)c(S(=O)(=O)n2cnc3ccccc32)c1	> 42 µM (inactive)
COc1ccccc1C(=O)OCC(=O)NC(=O)NCc1ccccc1	> 42 µM (inactive)
CCC(C)(C)n1nnnc1C(c1ccc(OC)c(OC)c1)N1CCN(c2cccc(OC)c2)CC1 (stereo not drawn)	> 42 µM (inactive)
CC1(OC(=O)CCc2ccccc2)C(=O)C=C2C=C(c3ccc(C#N)cc3)N(CC3CC3)C=C2C1=O (stereo not drawn)	> 42 µM (inactive)
Cc1ccsc1C(=O)NCCc1ccc(S(N)(=O)=O)cc1	> 42 µM (inactive)
O=C(O)c1cccc(N2C(=O)C3C4C=CC(C4=C(c4ccccc4)c4ccccc4)C3C2=O)c1 (stereo not drawn)	> 42 µM (inactive)
O=C(CCCC(=O)N/N=C/c1ccccc1C(=O)O)N/N=C/c1ccccc1C(=O)O	> 42 µM (inactive)
